# Assay results taken from patent US20240270759A1, “Preparation of SHP2 phosphatase inhibitors and its applications” (Ya Therapeutics Inc, priority 2021, published 2024).
# Target: T1, SHP2 full-length protein (Homo sapiens, UniProt Q06124)
# T1 construct: purchased BPS Bioscience #79330
# T1 sequence (Q06124 1-593): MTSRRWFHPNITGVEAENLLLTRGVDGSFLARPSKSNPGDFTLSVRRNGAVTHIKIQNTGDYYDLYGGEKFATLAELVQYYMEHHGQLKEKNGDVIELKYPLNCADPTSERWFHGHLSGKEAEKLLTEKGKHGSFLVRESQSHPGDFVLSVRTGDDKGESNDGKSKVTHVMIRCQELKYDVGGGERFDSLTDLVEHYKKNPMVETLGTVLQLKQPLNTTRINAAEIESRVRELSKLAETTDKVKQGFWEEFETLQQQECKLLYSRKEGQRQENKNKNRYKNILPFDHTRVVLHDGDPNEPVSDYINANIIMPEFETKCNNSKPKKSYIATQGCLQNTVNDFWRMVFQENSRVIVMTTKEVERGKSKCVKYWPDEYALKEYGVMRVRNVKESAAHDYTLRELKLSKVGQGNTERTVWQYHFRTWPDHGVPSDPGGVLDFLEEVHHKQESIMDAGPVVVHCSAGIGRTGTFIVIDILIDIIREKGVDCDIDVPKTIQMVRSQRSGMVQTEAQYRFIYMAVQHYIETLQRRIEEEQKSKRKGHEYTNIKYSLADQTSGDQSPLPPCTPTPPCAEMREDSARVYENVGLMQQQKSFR
# Assay: SHP2 allosteric inhibition experiment (Homogeneous Full Length SHP-2 Assay Kit)
# Format: biochemical
# Conditions: full-length SHP2 0.06 nM with SHP-2 activating peptide; ten-point, 1 μM to 0.05 nM; read-out: IC50 Values of Compounds Inhibiting SHP2
# Text: The following further describes and explains the present invention in combination with test examples, but these examples are not meant to limit the scope of the present invention. SHP2 allosteric inhibition experiment
# The purpose of this test is to measure the ability of the compounds to inhibit the allosteric activity of the SHP2 full-length protein. Experimental equipment: a centrifuge (5810R) is purchased from Eppendorf Company; pipettes are purchased from Eppendorf Company and Rainin Company, and microplate readers are purchased from BioTek Company of the United States, SynergyH1 multimode microplate reader.
# Experimental method: Homogeneous Full Length SHP-2 Assay Kit (BPS Bioscience, #79330) is used to detect SHP2 activity in vitro. First, add 18 μL of Master Mix to 96-well low-adsorption microplate (NUNC, #267342), that is, 0.5 μL of SHP-2 activating Peptide and 5 mM DTT are included in the reaction buffer with a final concentration of 1×. After centrifugation, add 5 μL of the compound to be tested in DMSO (final DMSO content is 1% (V/V) in each well: dissolve the compound to be tested in DMSO to 1 mM, conduct triple dilution with a total of 10 concentration levels ranging from 1 μM to 0.05 nM in the reaction buffer. After diluting SHP2 in 1× reaction buffer to a final concentration of 0.06 nM, add it to the reaction microwell plate, 2 μL per well. Set a full activity control ([…]) and a full inhibition control (without SHP-2) on the reaction plate, and incubate the reaction mixture at room temperature for 60 minutes after centrifugation.
# After incubation, add 25 μL of Substrate solution to each well, containing Substrate with a final concentration of 10 μM and DTT with a final concentration of 5 mM, and after centrifugation, continue to incubate at room temperature for 30 minutes. After the reaction, set the excitation wavelength at 340 nm, the emission wavelength at 455 nm, and the gain value to 75 on the Synergy H1 microplate reader (Biotek) for reading.
# Take the full activity control and full inhibition control as the values of Max and Min, and calculate the percentage inhibition rate of the wells treated with the compound based on the positive control wells (DMSO control wells) and negative control wells (no kinase added) on the reaction plate, (inhibition rate percentage=100−[(test compound−Min average value)/(Max average value−Min average value)]×100%. IC50 values of test compounds are calculated by fitting percentage of inhibition and ten-point concentration data to a 4-parameter nonlinear logic formula using GraphPad prism.
row,IC50 [nM],Structure (SMILES)
1,≤ 10,"C[C@@H]1OCC2(CCN(c3cnc4nc(Sc5cccc(-c6ccn(C)n6)c5Cl)ncc4n3)CC2)[C@@H]1N [Compound 63, (3S,4S)-8-(2-((2-chloro-3-(1-methyl-1H-pyrazole-3-yl)phenyl)mercapto)pteridine-6-y 1)-3-methyl-2-oxa-8-azaspiro[4.5]decane-4-amine]"
2,≤ 10,"C[C@@H]1OCC2(CCN(c3ccc4nc(Sc5cccc(-c6ccn(C)n6)c5Cl)ncc4n3)CC2)[C@@H]1N [Compound 65, (3S,4S)-8-(2-((2-chloro-3-(1-methyl-1H-pyrazole-3-yl)phenyl)mercapto)pyridinyl[3,2-d]pyrimidine-6-yl)-3-methyl-2-oxa-8-azaspiro[4.5]decane-4-amine]"
3,≤ 10,"CC(C)n1ccc(-c2cccc(Sc3ncc4nc(N5CCC6(CC5)CO[C@@H](C)[C@H]6N)ccc4n3)c2Cl)n1 [Compound 71, (3S,4S)-8-(2-((2-chloro-3-(1-isopropyl-1H-pyrazole-3-yl)phenyl)mercapto)pyridinyl[3,2-d]pyrimidine-6-yl)-3-methyl-2-oxa-8-azaspiro[4.5]decane-4-amine]"
4,≤ 10,"C[C@@H]1OCC2(CCN(c3ncc4nc(Sc5cccc(-c6cnccn6)c5Cl)cnc4n3)CC2)[C@@H]1N [Compound 73, (3S,4S)-8-(6-((2-chloro-3-(pyrazine-2-yl)phenyl)mercapto)pteridine-2-yl)-3-methyl-2-oxa-8-azaspiro[4.5]decane-4-amine]"
5,≤ 10,"C[C@@H]1OCC2(CCN(c3cnc4nc(Sc5cccc(-c6ccncn6)c5Cl)ncc4n3)CC2)[C@@H]1N [Compound 75, (3S,4S)-8-(2-((2-chloro-3-(pyrimidine-4-yl)phenyl)mercapto)pteridine-6-yl)-3-methyl-2-oxa-8-azaspiro[4.5]decane-4-amine]"
6,≤ 10,"C[C@@H]1OCC2(CCN(c3ncc4nc(Sc5cccc(-c6ccncn6)c5Cl)cnc4n3)CC2)[C@@H]1N [Compound 76, (3S,4S)-8-(6-((2-chloro-3-(pyrimidine-4-yl)phenyl)mercapto)pteridine-2-yl)-3-methyl-2-oxa-8-azaspiro[4.5]decane-4-amine]"
7,≤ 10,"C[C@@H]1OCC2(CCN(c3ccc4nc(Sc5cccc(-c6ccncn6)c5Cl)ncc4n3)CC2)[C@@H]1N [Compound 77, (3S,4S)-8-(2-((2-chloro-3-(pyrimidine-4-yl)phenyl)mercapto)pyridinyl[3,2-d]pyrimidine-6-yl)-3-methyl-2-oxa-8-azaspiro[4.5]decane-4-amine]"

# More lines, now with the values behind:
row,Structure (SMILES),IC50 [nM]
1,"C[C@@H]1OCC2(CCN(c3ncc4nc(Sc5cccc(-c6ccn(C)n6)c5Cl)cnc4n3)CC2)[C@@H]1N [Compound 64, (3S,4S)-8-(6-((2-chloro-3-(1-methyl-1H-pyrazole-3-yl)phenyl)mercapto)pteridine-2-y 1)-3-methyl-2-oxa-8-azaspiro[4.5]decane-4-amine]",≤ 10
2,"CCn1ccc(-c2cccc(Sc3ncc4nc(N5CCC6(CC5)CO[C@@H](C)[C@H]6N)cnc4n3)c2Cl)n1 [Compound 66, (3S,4S)-8-(2-((2-chloro-3-(1-ethyl-1H-pyrazole-3-yl)phenyl)mercapto)pteridine-6-yl)-3-methylyl-2-oxa-8-azaspiro[4.5]decane-4-amine]",≤ 10
3,"CCn1ccc(-c2cccc(Sc3cnc4nc(N5CCC6(CC5)CO[C@@H](C)[C@H]6N)ncc4n3)c2Cl)n1 [Compound 67, (3S,4S)-8-(6-((2-chloro-3-(1-ethyl-1H-pyrazole-3-yl)phenyl)mercapto)pteridine-2-yl)-3-methylyl-2-oxa-8-azaspiro[4.5]decane-4-amine]",≤ 10
4,"CCn1ccc(-c2cccc(Sc3ncc4nc(N5CCC6(CC5)CO[C@@H](C)[C@H]6N)ccc4n3)c2Cl)n1 [Compound 68, (3S,4S)-8-(2-((2-chloro-3-(1-ethyl-1H-pyrazole-3-yl)phenyl)mercapto)pyridinyl[3,2-d]pyrimidine-6-yl)-3-methyl-2-oxa-8-azaspiro[4.5]decane-4-amine]",≤ 10
5,"CC(C)n1ccc(-c2cccc(Sc3ncc4nc(N5CCC6(CC5)CO[C@@H](C)[C@H]6N)cnc4n3)c2Cl)n1 [Compound 69, (3S,4S)-8-(2-((2-chloro-3-(1-isopropyl-1H-pyrazole-3-yl)phenyl)mercapto)pteridine-6-yl)-3-methyl-2-oxa-8-azaspiro[4.5]decane-4-amine]",≤ 10
6,"CC(C)n1ccc(-c2cccc(Sc3cnc4nc(N5CCC6(CC5)CO[C@@H](C)[C@H]6N)ncc4n3)c2Cl)n1 [Compound 70, (3S,4S)-8-(6-((2-chloro-3-(1-isopropyl-1H-pyrazole-3-yl)phenyl)mercapto)pteridine-2-yl)-3-methyl-2-oxa-8-azaspiro[4.5]decane-4-amine]",≤ 10
7,"C[C@@H]1OCC2(CCN(c3cnc4nc(Sc5cccc(-c6cnccn6)c5Cl)ncc4n3)CC2)[C@@H]1N [Compound 72, (3S,4S)-8-(2-((2-chloro-3-(pyrazine-2-yl)phenyl)mercapto)pteridine-6-yl)-3-methyl-2-oxa-8-azaspiro[4.5]decane-4-amine]",≤ 10
8,"C[C@@H]1OCC2(CCN(c3ccc4nc(Sc5cccc(-c6cnccn6)c5Cl)ncc4n3)CC2)[C@@H]1N [Compound 74, (3S,4S)-8-(2-((2-chloro-3-(pyrazine-2-yl)phenyl)mercapto)pyridinyl[3,2-d]pyrimidine-6-yl)-3-methyl-2-oxa-8-azaspiro[4.5]decane-4-amine]",≤ 10
9,C[C@@H]1OCC2(CCN(c3cnc4nc(Sc5cccc(-c6cccnc6)c5Cl)ncc4n3)CC2)[C@@H]1N [Compound 78],≤ 10
10,C[C@@H]1OCC2(CCN(c3ccc4nc(Sc5cccc(-c6cccnc6)c5Cl)ncc4n3)CC2)[C@@H]1N [Compound 80],≤ 10
11,"C[C@@H]1OCC2(CCN(c3cnc4nc(Sc5cccc(NC(=O)c6ccncn6)c5Cl)ncc4n3)CC2)[C@@H]1N [Compound 81, N-(3-((6-((3S,4S)-4-amino-3-methyl-2-oxa-8-azaspiro[4.5]decane-8-yl)pteridine-2-yl)mercapto)-2-chlorophenyl)pyrimidine-4-carboxamide]",≤ 10
12,"C[C@@H]1OCC2(CCN(c3ncc4nc(Sc5cccc(NC(=O)c6ccncn6)c5Cl)cnc4n3)CC2)[C@@H]1N [Compound 82, N-(3-((2-((3S,4S)-4-amino-3-methyl-2-oxa-8-azaspiro[4.5]decane-8-yl)pteridine-6-yl)mercapto)-2-chlorophenyl)pyrimidine-4-carboxamide]",≤ 10
13,"C[C@@H]1OCC2(CCN(c3ccc4nc(Sc5cccc(NC(=O)c6ccncn6)c5Cl)ncc4n3)CC2)[C@@H]1N [Compound 83, N-(3-((6-((3S,4S)-4-amino-3-methyl-2-oxa-8-azaspiro[4.5]decane-8-yl)pyridinyl[3,2-d]pyrimidine-2-yl)mercapto)-2-chlorophenyl)pyrimidine-4-carboxamide]",≤ 10
14,"C[C@@H]1OCC2(CCN(c3cnc4nc(Sc5cccc(NC(=O)c6cnccn6)c5Cl)ncc4n3)CC2)[C@@H]1N [Compound 84, N-(3-((6-((3S,4S)-4-amino-3-methyl-2-oxa-8-azaspiro[4.5]decane-8-yl)pteridine-2-yl)mercapto)-2-chlorophenyl)pyrazine-2-carboxamide]",≤ 10
15,"C[C@@H]1OCC2(CCN(c3ncc4nc(Sc5cccc(NC(=O)c6cnccn6)c5Cl)cnc4n3)CC2)[C@@H]1N [Compound 85, N-(3-((2-((3S,4S)-4-amino-3-methyl-2-oxa-8-azaspiro[4.5]decane-8-yl)pteridine-6-yl)mercapto)-2-chlorophenyl)pyrazine-2-carboxamide]",≤ 10
